# Patent US20070225278A1, “Methods for treating cognitive and other disorders” (priority 2006, published 2007)
# Key:
# male Long-Evans rats = experiment: Novel object recognition (NOR); format: in vivo, rat
# Protocol: Animals: Adult male Sprague-Dawley rats (Charles River, Wilmington, Mass.) weighing 280-350 g at the time of surgery were used for all microdialysis experiments. Adult male Long-Evans rats (Charles River, Wilmington, Mass.) weighing 180-220 g were used for NOR studies. Rats were housed individually for recognition memory studies. All animals had free access to food and water and were group housed in the AAALAC-accredited facility that was maintained on a 12 h light dark cycle (lights on at 0600 h) for at least 1 week prior to surgery or behavioral testing. […]
# Novel object recognition (NOR) training and testing was performed in a circular field (diameter ˜70 cm, 30 cm high) constructed out of plastic and containing bedding. […] Animal performance was tracked by video and monitored by an experimenter located outside of the testing room. […]
# The visual recognition task was divided into 3 sessions—habituation, a sample trial and a choice trial. […] The amount of time exploring the objects was recorded for the entire trial. […]
# The effect of treatment on object exploration during the sample trial was examined using a one-way ANOVA on total contact time followed by Fisher's LSD group mean pairwise comparisons. The amount of time exploring the novel and familiar objects across treatment groups was analyzed using a repeated measures ANOVA followed by Fisher's LSD post hoc comparisons. […]
# rats = experiment: 5-choice serial reaction time test (5CSRT), variable ITI; format: in vivo, rat; conditions: 1 mg/kg ip, 10 and 7 sec ITI, p<0.05 vs vehicle
# From the text: The 5-choice serial reaction time task is a behavioral assay that is used to measure attention and impulsivity in rats. Rats are trained to respond correctly to aperture illuminations reinforced to food rewards until they reach >70% correct responses during a 30-minute baseline session. Once animals reach baseline criteria, a variable stimulus duration (SD) and variable inter-trial interval (ITI) test can be used to manipulate normal baseline performance. […] When the ITI is increased from that used during baseline training impulsivity, as measured by premature responses, is increased. Compounds and manipulations that improve attention will improve performance and those that decrease impulsivity will decrease premature responses.
# 5CSRT: The test apparatus consisted of ten 25×25 cm aluminum chambers (Med Associates Inc., St. Albans, Vt.). The rear wall of each chamber was concavely curved, containing five accessible apertures, each 2.5 cm square, and 4 cm deep positioned 2 cm above floor level. […]
# 5CSRT Training: Prior to drug treatments, rats were trained to discriminate a brief visual stimulus light presented randomly in one of the five spatial locations. […] A single nose-poke in this opening during the period of illumination (signal period), or during the 5 second afterwards (limited hold) was reinforced by the delivery of a food pellet and a correct response was recorded. […]
# [1] = test system: male Sprague Dawley CD rats; experiment: Reversal of DOI induced deficits in PPI; conditions: significant at 17 mg/kg IP (3-30 mg/kg tested); DOI 3 mg/kg IP
# [2] = test system: male Sprague Dawley CD rats; experiment: Baseline PPI, compound administered alone; format: in vivo, rat; conditions: dose range that attenuates d-amphetamine and DOI deficits
# From the text: Inter-trial intervals averaged 15 s.
structure (smiles),measurement,setting,value
c1cc2c3c(c1)[C@H]1CCC[C@H]1N3CCNC2 [Compound 1],effect on exploration during the sample trial,male Long-Evans rats; 1 mg/kg orally,No significant effect
same,exploration of novel vs familiar object in choice trial (retention),"male Long-Evans rats; 1 mg/kg orally 60 minutes prior to sample trial, 48 hour retention interval",significantly greater time spent exploring the novel than the familiar object
same,premature responding,rats,statistically significant decrease
same,attenuation of DOI induced disruption in gating (PPI),[1],significantly attenuated
same,effect on baseline PPI when administered alone,[2],no effect
